Our source for the GI50 and TGI values is PubChem BioAssay (NCI).

Among the test systems are SK-OV-3 ovarian; HCT-15 colon; NCI-H460 lung; PC-3 prostate; KM12 colon; TK-10 renal; SK-MEL-5 melanoma; 786-0 renal; HT29 colon; COLO 205 colon.
What all share (assay): inhibition of tumour cell growth, NCI panel, 48 h

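Five compound concentrations were applied to cells in 96-well plates for 48 hours; endpoints were derived by simple linear interpolation of the resulting dose-response curve. GI50: concentration for 50% inhibition of growth. TGI: concentration producing complete growth inhibition.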 Bounds are passed on as bounds.

For `Nc1ccc(-c2nc3ccccc3[nH]2)c(O)c1`, the GI50 in the assay with SK-OV-3 ovarian was over 100 µM; in the assay with HCT-15 colon, over 100 µM; in the assay with NCI-H460 lung it was 30.4 µM; in the assay with PC-3 prostate, 23.9 µM; in the assay with KM12 colon, 17.9 µM; in the assay on TK-10 renal it was 17.8 µM. The GI50 in the assay on SK-MEL-5 melanoma is 21.3 µM; in the assay with 786-0 renal, 47.4 µM; with HT29 colon, 41 µM; in the assay with COLO 205 colon, 35 µM. Also, the TGI is over 100 µM in the assay on SK-OV-3 ovarian; over 100 µM with HCT-15 colon; over 100 µM in the assay with NCI-H460 lung; over 100 µM with PC-3 prostate; 57.4 µM in the assay on KM12 colon; 84 µM in the assay with TK-10 renal. Further, the TGI in the assay with SK-MEL-5 melanoma is 72.3 µM; in the assay with 786-0 renal, over 100 µM; with HT29 colon it was over 100 µM; in the assay with COLO 205 colon, over 100 µM.
Consider `C[C@]12CC/C(=N\N)C[C@@H]1CC[C@@H]1[C@@H]2CC[C@]2(C)/C(=N/N)CC[C@@H]12`, for which the GI50 in the assay with SK-OV-3 ovarian, in the assay with HCT-15 colon, with NCI-H460 lung, with PC-3 prostate, in the assay on KM12 colon and in the assay with TK-10 renal was over 100 µM in each case. For the same molecule, the GI50 in the assay on SK-MEL-5 melanoma, in the assay on 786-0 renal and in the assay on HT29 colon was over 100 µM each time. Besides, the TGI in the assay with SK-OV-3 ovarian, in the assay with HCT-15 colon, in the assay with NCI-H460 lung, in the assay on PC-3 prostate, in the assay with KM12 colon and in the assay with TK-10 renal was over 100 µM in each case. Besides, the TGI in the assay with SK-MEL-5 melanoma, in the assay with 786-0 renal and with HT29 colon was over 100 µM in each case.
Consider `C=C1C(=O)O[C@H]2[C@H]1CC/C(CNS(=O)(=O)c1ccc3ccccc3c1)=C\CC[C@@]1(C)O[C@@H]21`, for which the GI50 in the assay with SK-OV-3 ovarian is 16.3 µM; in the assay with HCT-15 colon, 1.27 µM; in the assay on NCI-H460 lung, 8.14 µM; with PC-3 prostate, 7.59 µM; in the assay with KM12 colon it was 10.8 µM; with SK-MEL-5 melanoma it was 2.89 µM. The GI50 is 1.62 µM with 786-0 renal, 1.94 µM in the assay on HT29 colon and 1.16 µM in the assay with COLO 205 colon. The TGI amounted to 30 µM in the assay with SK-OV-3 ovarian; 2.77 µM in the assay on HCT-15 colon; 24.3 µM with NCI-H460 lung; 21.1 µM in the assay on PC-3 prostate; 23.8 µM with KM12 colon; 9.67 µM in the assay on SK-MEL-5 melanoma. Further, the TGI in the assay with 786-0 renal was determined as 3.22 µM; in the assay with HT29 colon it was 3.91 µM; in the assay with COLO 205 colon, 2.69 µM.
With `CSc1ccc(-c2cc(-c3ccc(NC(=O)CCCN4CCCC4)cc3)nc(-c3ccc(NC(=O)CCCN4CCCC4)cc3)c2)cc1`, the GI50 in the assay on SK-OV-3 ovarian is 2.97 µM; in the assay with NCI-H460 lung it was 1.81 µM; with PC-3 prostate, 1.8 µM; in the assay with KM12 colon, 1.87 µM; in the assay with TK-10 renal it was 4.56 µM; in the assay on SK-MEL-5 melanoma, 2.74 µM. Moreover, the results for the GI50 with 786-0 renal, in the assay with HT29 colon and in the assay with COLO 205 colon were 6.88 µM, 1.71 µM and 2.05 µM, respectively. For the same molecule, the TGI with SK-OV-3 ovarian came to 8.74 µM; in the assay on NCI-H460 lung, 3.28 µM; with PC-3 prostate it was 3.4 µM; in the assay on KM12 colon it was 3.3 µM; in the assay on TK-10 renal it was 17.5 µM; in the assay with SK-MEL-5 melanoma it was 10.7 µM. Further, the TGI with 786-0 renal amounted to 23.9 µM; in the assay on HT29 colon it was 3.13 µM; in the assay with COLO 205 colon it was 4.39 µM.
As to `COc1ccc(Nc2ncccc2/C=C/C(=O)c2cc(OC)c(OC)c(OC)c2)cc1`, the GI50 was 2.72 µM with SK-OV-3 ovarian; 1.66 µM in the assay with HCT-15 colon; 2.01 µM in the assay on NCI-H460 lung; 2.82 µM in the assay on PC-3 prostate; 1.69 µM in the assay on KM12 colon; 1.39 µM in the assay on SK-MEL-5 melanoma. In addition, the GI50 is 1.69 µM in the assay on 786-0 renal, 1.6 µM with HT29 colon and 1.69 µM in the assay on COLO 205 colon. For the same molecule, the TGI with SK-OV-3 ovarian amounted to 8.56 µM; in the assay with HCT-15 colon it was 5.06 µM; in the assay on NCI-H460 lung, 4.25 µM; in the assay on PC-3 prostate, 8.71 µM; in the assay with KM12 colon it was 3.22 µM; in the assay on SK-MEL-5 melanoma, 2.68 µM. Moreover, the TGI in the assay with 786-0 renal worked out at 3.22 µM; in the assay on HT29 colon, 3.16 µM; in the assay on COLO 205 colon it was 3.06 µM.
Take `Cc1ccc2c[c]1[Hg][CH2]COS2(=O)=O`: the GI50 with SK-OV-3 ovarian was over 100 µM; in the assay with HCT-15 colon, 16.4 µM; in the assay with NCI-H460 lung it was over 100 µM; in the assay on PC-3 prostate, 18.3 µM; in the assay with TK-10 renal, 17.8 µM; with SK-MEL-5 melanoma, 16.7 µM. The GI50 with 786-0 renal is 18.1 µM; in the assay on HT29 colon it was 17.9 µM; with COLO 205 colon, 18.8 µM. The TGI in the assay with SK-OV-3 ovarian is over 100 µM; in the assay with HCT-15 colon, 30 µM; in the assay on NCI-H460 lung, over 100 µM; with PC-3 prostate, 32.4 µM; in the assay with TK-10 renal, 31.7 µM; with SK-MEL-5 melanoma, 30.3 µM. Also, the values for the TGI in the assay with 786-0 renal, with HT29 colon and in the assay on COLO 205 colon were 32 µM, 31.8 µM and 32.8 µM, respectively.
In the case of `O=C(Nc1c(Cl)cc([N+](=O)[O-])cc1Cl)C(=O)C1C(=O)NC(=S)NC1=O`, the TGI with SK-OV-3 ovarian, in the assay on HCT-15 colon, with NCI-H460 lung, in the assay with PC-3 prostate, with KM12 colon and in the assay with TK-10 renal was over 100 µM in each case. Further, the TGI in the assay on SK-MEL-5 melanoma, in the assay with 786-0 renal and in the assay with HT29 colon was over 100 µM throughout.
